Values quoted from earlier work, collected in patent US20120128730A1, “COMPOSITIONS AND METHODS FOR ONCE-DAILY TREATMENT OF OBSESSIVE COMPULSIVE DISORDER WITH ONDANSETRON” (priority 2010, published 2012).

System: mesenteric bed or the nerves in the heart
Conditions: animal studies

Question: With `Cc1nccn1CC1CCc2c(c3ccccc3n2C)C1=O` (stereo not shown) [ondansetron] as the compound, how does the “effect on the mesenteric bed or the nerves in the heart” value read?
Answer: Its value is “did not appear to have effect”.
